Experimental data as given in paper PMC11841048 (ACS Infectious Diseases, 2025).
Several values for one entry are separate records, joined by “and”; a condition that tells them apart may be missing. Equal entries are not always repeated. Where two headings read alike, the source gives them in different places.

How the values were obtained:
CjIMPDH = CjIMPDH (Campylobacter jejuni, UniProt Q0P9J4, DEL92-194/T195G); assay: biochemical; conditions: Ki,app
BaIMPDH (wild-type) [1] = target: T1, BaIMPDH (wild-type) (Bacillus anthracis, UniProt A0A6L8P2U9); assay: biochemical; conditions: Ki,app
BaIMPDH (wild-type) [2] = target: T1, BaIMPDH (wild-type); assay: biochemical; format: biochemical
BaIMPDH (wild-type) [3] = target: T1, BaIMPDH (wild-type); assay: biochemical
BaIMPDH (wild-type) [4] = conditions: cited from earlier work
BaIMPDH (wild-type) [5] = target: T1, BaIMPDH (wild-type); assay: biochemical; remark: listed apart in the source
BaIMPDH (wild-type) [6] = target: T1, BaIMPDH (wild-type); format: biochemical
BaIMPDH = BaIMPDH (Bacillus anthracis, UniProt A0A6L8P2U9); assay: biochemical; format: biochemical
Ba-, Cj-, and ClpIMPDH = format: biochemical
SaIMPDH = SaIMPDH (Staphylococcus aureus, UniProt Q6GJQ7); assay: biochemical
CpIMPDH = CpIMPDH (Cryptosporidium parvum, UniProt Q8T6T2); assay: biochemical
SpIMPDH = SpIMPDH (Streptococcus pyogenes, UniProt P0C0H6); assay: biochemical
[7] = k–9/k9, inhibitor dissociation constant from E-XMP*
[8] = k–8/k8, inhibitor dissociation constant from E·IMP

T1 sequence (A0A6L8P2U9 221-487, added parts left off): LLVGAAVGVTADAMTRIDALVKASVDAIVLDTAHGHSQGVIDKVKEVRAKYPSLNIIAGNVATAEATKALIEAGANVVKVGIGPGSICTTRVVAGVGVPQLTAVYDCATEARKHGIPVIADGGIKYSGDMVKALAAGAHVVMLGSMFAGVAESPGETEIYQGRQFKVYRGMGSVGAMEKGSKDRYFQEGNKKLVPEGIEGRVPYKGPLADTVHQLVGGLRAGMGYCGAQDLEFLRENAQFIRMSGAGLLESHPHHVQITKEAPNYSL
Sequence of BaIMPDH (A0A6L8P2U9 221-487, added parts left off): as above
Sequence of SaIMPDH (Q6GJQ7 whole entry): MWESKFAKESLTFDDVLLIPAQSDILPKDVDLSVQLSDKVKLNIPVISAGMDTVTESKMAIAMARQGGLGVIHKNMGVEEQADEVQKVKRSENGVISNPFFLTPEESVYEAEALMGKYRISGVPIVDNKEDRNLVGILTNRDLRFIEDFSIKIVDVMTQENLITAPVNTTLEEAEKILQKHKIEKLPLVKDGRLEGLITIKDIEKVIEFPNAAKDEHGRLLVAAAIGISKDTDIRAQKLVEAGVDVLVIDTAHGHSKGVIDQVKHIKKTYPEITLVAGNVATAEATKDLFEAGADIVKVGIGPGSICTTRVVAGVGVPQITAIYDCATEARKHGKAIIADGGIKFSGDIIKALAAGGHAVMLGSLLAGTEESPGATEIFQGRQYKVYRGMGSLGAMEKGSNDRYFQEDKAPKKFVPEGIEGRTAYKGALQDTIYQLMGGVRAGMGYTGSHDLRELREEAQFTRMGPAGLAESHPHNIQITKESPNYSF
Sequence of CpIMPDH (Q8T6T2 whole entry): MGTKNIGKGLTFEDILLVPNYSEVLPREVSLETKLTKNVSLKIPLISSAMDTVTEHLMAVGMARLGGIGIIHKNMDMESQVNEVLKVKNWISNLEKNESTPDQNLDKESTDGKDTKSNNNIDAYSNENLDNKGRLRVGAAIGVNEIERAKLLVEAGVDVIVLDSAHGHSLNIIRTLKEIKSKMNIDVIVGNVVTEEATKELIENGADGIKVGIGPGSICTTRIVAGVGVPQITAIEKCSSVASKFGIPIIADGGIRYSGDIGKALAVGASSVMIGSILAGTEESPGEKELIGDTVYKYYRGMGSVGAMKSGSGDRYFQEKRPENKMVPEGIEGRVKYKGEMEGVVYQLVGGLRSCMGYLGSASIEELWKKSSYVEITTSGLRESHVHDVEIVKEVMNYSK
Sequence of SpIMPDH (P0C0H6 whole entry): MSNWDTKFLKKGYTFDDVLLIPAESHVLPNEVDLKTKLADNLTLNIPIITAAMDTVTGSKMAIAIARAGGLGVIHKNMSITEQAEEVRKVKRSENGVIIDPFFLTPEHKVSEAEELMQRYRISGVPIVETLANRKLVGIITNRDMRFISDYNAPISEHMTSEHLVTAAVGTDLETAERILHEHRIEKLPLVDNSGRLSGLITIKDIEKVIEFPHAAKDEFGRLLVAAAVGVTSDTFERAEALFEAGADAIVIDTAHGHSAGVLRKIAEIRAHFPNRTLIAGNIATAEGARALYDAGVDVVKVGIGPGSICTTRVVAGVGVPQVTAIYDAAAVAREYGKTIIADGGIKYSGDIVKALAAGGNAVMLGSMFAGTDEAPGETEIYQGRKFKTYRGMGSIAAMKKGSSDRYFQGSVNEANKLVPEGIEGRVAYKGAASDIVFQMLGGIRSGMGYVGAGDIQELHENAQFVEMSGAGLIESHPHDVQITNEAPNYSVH

Question: For `C=C(C)c1cccc(C(C)(C)NC(=O)Nc2ccc(Cl)c(OCC(=O)O)c2)c1` [P225], which Ki (CjIMPDH) is on record?
Answer: The Ki was 0.02 ± 0.01 µM.

Question: And the Ki (BaIMPDH (wild-type) [1])?
Answer: Its Ki is 0.004 µM and 0.00043 µM.

Question: What does the source list for `NC(=O)C1=CN([C@@H]2O[C@H](COP(=O)(O)OP(=O)(O)OC[C@H]3O[C@@H](n4cnc5c(N)ncnc54)[C@H](O)[C@@H]3O)[C@@H](O)[C@H]2O)C=CC1` [NADH]?
Answer: k4 (NADH release) (BaIMPDH (wild-type) [2]): >446 s^–1; k–4 (NADH association) (BaIMPDH (wild-type) [2]): >3.8 μM^–1 s^–1; Kd (BaIMPDH (wild-type) [2]; read-out: k4/k–4): 120 µM

Question: With `C[C@@H](Oc1cc[n+]([O-])c2ccccc12)c1cn(-c2ccc(Cl)cc2)nn1` [A110] as the compound, how does the Kd (BaIMPDH (wild-type) [2]; k–8/k8) read?
Answer: Its Kd is 1.7 µM.

Question: And the Kd (BaIMPDH (wild-type) [2]; k–9/k9)?
Answer: The Kd was 0.085 µM.

Question: What about the kon at 6 µM (BaIMPDH (wild-type) [2]; read-out: k8 (inhibitor association with E·IMP)) of the same compound?
Answer: The kon at 6 µM was 9.33e+06 M⁻¹ s⁻¹.

Question: What about the kon (BaIMPDH (wild-type) [2]; read-out: k9 (inhibitor association with E-XMP*)) of the same compound?
Answer: The kon was 3.52e+06 M⁻¹ s⁻¹.

Question: What about the koff (BaIMPDH (wild-type) [2]; read-out: k–8 (inhibitor dissociation from E·IMP·I)) of the same compound?
Answer: The koff was 15.6 s⁻¹.

Question: And the koff (BaIMPDH (wild-type) [2]; read-out: k–9 (inhibitor dissociation from E-XMP*·I))?
Answer: Its koff is 0.3 s⁻¹.

Question: And the Ki (BaIMPDH (wild-type) [1])?
Answer: Its Ki is 0.081 µM and 0.059 µM.

Question: What about the Kd (BaIMPDH (wild-type) [3]; [7]) of the same compound?
Answer: The Kd was 0.065 µM.

Question: What does the source list for `C[C@H](Oc1cccc2ccccc12)C(=O)Nc1ccc2oc(-c3ccncc3)nc2c1` [Q21]?
Answer: Ki (BaIMPDH (wild-type) [1]): 0.063 µM and 0.023 µM; preference for E-XMP* over E·IMP (BaIMPDH (wild-type) [3]): same affinity for both enzyme forms; Kd (BaIMPDH (wild-type) [3]; [8]): 0.038 µM; Kd (BaIMPDH (wild-type) [3]; [7]): 0.043 µM

Question: What does the source list for `O=C(Cn1c(-c2ccccn2)nc2ccccc21)Nc1ccc2ccccc2c1` [C91]?
Answer: fold more potent inhibitor of BaIMPDH (BaIMPDH (wild-type) [4]): 10 fold; k-9 (BaIMPDH (wild-type) [3]): 0.0976; Kd (BaIMPDH (wild-type) [3]; [8]): 0.28 µM; Kd (BaIMPDH (wild-type) [3]; [7]): 0.11 µM; koff (BaIMPDH (wild-type) [3]; read-out: k-8): 0.239 s⁻¹; koff (BaIMPDH (wild-type) [3]; read-out: k-9): 0.0844 s⁻¹

Question: With `O=c1[nH]c(=O)c2ncn([C@@H]3O[C@H](COP(=O)(O)O)[C@@H](O)[C@H]3O)c2[nH]1` [XMP, xanthosine 5′-monophosphate] as the compound, how does the Kd (BaIMPDH (wild-type) [5]) read?
Answer: Its Kd is 404 µM.

Question: For `NC(=O)c1ccc[n+]([C@@H]2O[C@H](COP(=O)([O-])OP(=O)(O)OC[C@H]3O[C@@H](n4cnc5c(N)ncnc54)[C@H](O)[C@@H]3O)[C@@H](O)[C@H]2O)c1` [NAD^+], which “k2 (NAD^+ association with E·IMP)” value (BaIMPDH (wild-type) [2]) is on record?
Answer: The value was 0.0309 μM^–1 s^–1.

Question: What about the “k7 (NAD^+ association with E-XMP*)” value (BaIMPDH (wild-type) [2]) of the same compound?
Answer: The value was 0.00398 μM^–1 s^–1.

Question: And the “k–2 (NAD^+ dissociation from E·IMP·NAD^+)” value (BaIMPDH (wild-type) [2])?
Answer: The value was 11.7 s^–1.

Question: And the “k–7 (NAD^+ dissociation from E-XMP*·NAD^+)” value (BaIMPDH (wild-type) [2])?
Answer: Its value is 31.8 s^–1.

Question: And the Kd (BaIMPDH (wild-type) [2]; read-out: k–2/k2)?
Answer: Its Kd is 380 µM.

Question: What about the Kd (BaIMPDH (wild-type) [2]; read-out: k–7/k7) of the same compound?
Answer: The Kd was 8000 µM.

Question: And the “apparent Michaelis constant for NAD+, KmB” value (BaIMPDH (wild-type) [6])?
Answer: Its value is 683 [ 601 , 779 ] µM.

Question: What about the Ki (BaIMPDH (wild-type) [6]; read-out: Ki(NAD^+)) of the same compound?
Answer: Its Ki is 9600 ± 2100 µM.

Question: And the Km (BaIMPDH (wild-type) [6]; read-out: Km(NAD^+))?
Answer: Its Km is 590 ± 100 µM.

Question: With `Nc1ncnc2c1ncn2[C@@H]1O[C@H](COP(=O)(O)OP(=O)(O)O)[C@@H](O)[C@H]1O` [ADP] as the compound, how does the Ki (BaIMPDH; read-out: Ki,app) read?
Answer: The Ki was 6200 µM.

Question: Which results are given for `C=C(C)c1cccc(C(C)(C)NC(=O)Nc2ccc(Cl)c(NC3OCC(O)C(O)C3O)c2)c1` (stereo not shown) [P176]?
Answer: Ki (CjIMPDH): 0.177 µM and 0.077 µM; Ki (BaIMPDH (wild-type) [1]): 0.016 µM

Question: With `C/C(=N\O)c1cccc(C(C)(C)NC(=O)Nc2ccc(Cl)c(-c3nc(C(F)(F)F)cs3)c2)c1` [P182] as the compound, how does the Ki (CjIMPDH) read?
Answer: The Ki was 0.032 ± 0.006 µM.

Question: What about the Ki (BaIMPDH (wild-type) [1]) of the same compound?
Answer: The Ki was 0.008 µM.

Question: With `NC(=O)c1csc([C@@H]2O[C@H](CO)[C@@H](O)[C@H]2O)n1` [tiazofurin] as the compound, how does the Ki (BaIMPDH) read?
Answer: The Ki was 620 µM.

Question: With `C=C(C)c1cccc(C(C)(C)NC(=O)Nc2ccc(Cl)c(OC3OC(CO)C(O)C3O)c2)c1` (stereo not shown) [P178] as the compound, how does the Ki (CjIMPDH) read?
Answer: Its Ki is 0.097 µM.

Question: What about the “difference in affinity across the three enzymes” value (Ba-, Cj-, and ClpIMPDH) of the same compound?
Answer: Its value is greater than 5 fold.

Question: And the Ki (BaIMPDH (wild-type) [1])?
Answer: The Ki was 0.012 µM.

Question: What does the source list for `C=C(C)c1cccc(C(C)(C)NC(=O)Nc2ccc(Cl)c(NC3OC[C@@H](O)[C@H](O)[C@@H]3O)c2)c1` (stereo partly shown) [P221]?
Answer: Ki (CjIMPDH): 0.046 µM; Ki (BaIMPDH (wild-type) [1]): 0.02 µM

Question: What does the source list for `Cn1nc(CC(=O)Nc2ccc3oc4c(c3c2)CCCC4)c2ccccc2c1=O` [D67]?
Answer: Ki (BaIMPDH (wild-type) [1]): 0.698 µM and 0.671 µM; Kd (BaIMPDH (wild-type) [3]; [8]): 1.1 µM; Kd (BaIMPDH (wild-type) [3]; [7]): 0.42 µM

Question: Which Ki (BaIMPDH (wild-type) [1]) does the source give for `C/C(=N\OCCN)c1cccc(C(C)(C)NC(=O)Nc2ccc(Cl)c([N+](=O)[O-])c2)c1` [P131] here?
Answer: Its Ki is 0.094 µM.

Question: What about the Kd (BaIMPDH (wild-type) [3]; [8]) of the same compound?
Answer: The Kd was 0.11 µM.

Question: What about the Kd (BaIMPDH (wild-type) [3]; [7]) of the same compound?
Answer: The Kd was 0.061 µM.

Question: Which Ki (CjIMPDH) does the source give for `CC(C)(NC(=O)Nc1ccc(Cl)cc1)c1cccc(/C(N)=N/O)c1` [P200] here?
Answer: Its Ki is 0.145 ± 0.04 µM.

Question: What about the “difference in affinity across the three enzymes” value (Ba-, Cj-, and ClpIMPDH) of the same compound?
Answer: The value was greater than 5 fold.

Question: What about the Ki (BaIMPDH (wild-type) [1]) of the same compound?
Answer: The Ki was 0.016 µM.

Question: For `C/C(=N\O)c1cccc(C(C)(C)NC(=O)Nc2ccc(Cl)c(C(N)=O)c2)c1` [P32], which Ki (SaIMPDH) is on record?
Answer: Its Ki is 0.023 ± 0.01 µM.

Question: And the Ki (CpIMPDH)?
Answer: Its Ki is 0.005 ± 0.002 µM.

Question: What about the Ki (CjIMPDH) of the same compound?
Answer: Its Ki is 0.095 ± 0.005 µM.

Question: And the Ki (SpIMPDH)?
Answer: The Ki was 0.164 ± 0.01 µM.

Question: And the Ki (BaIMPDH (wild-type) [1])?
Answer: Its Ki is 0.052 µM and 0.047 µM.
